Results reported in patent publication US20260242415A1 (priority 2022, published 2026).
Positions of bridges follow the written chain, without caps; N, C: chain ends. Non-standard residues stand in square brackets, D forms with d. Chains are numbered I, II in the order given. AEEA = NCCOCCOCC(=O)O

Assays:
[1] = test system: spike protein of the SARS-CoV-2 virion; type: binding
[2] = test system: SARS-CoV-2 pseudoviruses
[3] = molecular target: full length SARS-CoV-2 Spike (Severe acute respiratory syndrome coronavirus 2, UniProt P0DTC2); type: binding; settings: 10 µM
[4] = test system: whole SARS-CoV-2 virus
[5] = test system: SARS2-S pseudotyped VSV
[6] = test system: VSV pseudotyped with spike protein from SARS-CoV-2
[7] = test system: VSV pseudotyped with spike protein from SARS-CoV-1
[8] = test system: VSV pseudotyped with spike protein from WIV-16

TSQICQELDALGDWI [SARS1spikeD2]
enrichment in final round (% of total sequences) [1]: 7.71%

I: {CH2CO}-YRRPREQIIIGSLWVFCG[AEEA][AEEA][AEEA][AEEA][AEEA][AEEA]KG-NH2 / II: {CH2CO}-YRRPREQIIIGSLWVFCG[AEEA][AEEA][AEEA][AEEA][AEEA][AEEA] (amide I:25-II:C; thioether I:N-I:17, II:N-II:17) [Dimer 3]
IC50 [2]: 0.09 µM

IVLHDGLRSATVLWI [SARS2R3L2]
enrichment in final round (% of total sequences) [1]: 0.77%
ΔTm, melting point change [3]: 1.5 °C

I: {CH2CO}-YRRPREQIIIGSLWVFCG[AEEA][AEEA][AEEA][AEEA][AEEA][AEEA][AEEA][AEEA]KG-NH2 / II: {CH2CO}-YRRPREQIIIGSLWVFCG[AEEA][AEEA][AEEA][AEEA][AEEA][AEEA][AEEA][AEEA] (amide I:27-II:C; thioether I:N-I:17, II:N-II:17) [Dimer 4]
IC50 [2]: 0.01 µM

I: {CH2CO}-YRRPREQIIIGSLWVFCG[AEEA][AEEA]KG-NH2 / II: {CH2CO}-YRRPREQIIIGSLWVFCG[AEEA][AEEA] (amide I:21-II:C; thioether I:N-I:17, II:N-II:17) [Dimer 2]
IC50 [2]: 0.05 µM

NARILQRWFPELAHL [SARS2D1]
enrichment in final round (% of total sequences) [1]: 11.88%
ΔTm, melting point change [3]: 0 °C

SVVFSADGRHYYWDS [SARS2L3]
enrichment in final round (% of total sequences) [1]: 1.25%
ΔTm, melting point change [3]: 0 °C

CC[C@H](C)[C@@H]1NC(=O)[C@H](C(C)C)NC(=O)[C@H](CC(C)C)NC(=O)[C@H](CCCCN)NC(=O)[C@H](CCCNC(=N)N)NC(=O)[C@@H]2CCCN2C(=O)[C@H](C(C)C)NC(=O)[C@H](CCCNC(=N)N)NC(=O)[C@H](Cc2ccc(O)cc2)NC(=O)CSC[C@@H](C(=O)NCC(N)=O)NC(=O)[C@H](Cc2ccccc2)NC(=O)[C@H](CC(N)=O)NC(=O)[C@H](Cc2c[nH]c3ccccc23)NC(=O)[C@H](C(C)C)NC(=O)[C@H](CO)NC(=O)CNC(=O)[C@H]([C@@H](C)CC)NC1=O [Compound S1b3inL4]
enrichment in final round (% of total sequences) [1]: 1.50%
ΔTm, melting point change [3]: 0 °C
IC50 [4]: 11.4 µM

CC[C@H](C)[C@@H]1NC(=O)[C@H](Cc2ccc(O)cc2)NC(=O)CSC[C@@H](C(=O)NCC(N)=O)NC(=O)[C@H](C(C)C)NC(=O)[C@H](Cc2ccc(O)cc2)NC(=O)[C@H](CCC(N)=O)NC(=O)[C@H](C(C)C)NC(=O)[C@H](Cc2c[nH]cn2)NC(=O)[C@H]([C@@H](C)O)NC(=O)[C@H](CO)NC(=O)[C@H](Cc2ccc(O)cc2)NC(=O)[C@H](CC(C)C)NC(=O)[C@H](CO)NC(=O)[C@H](CC(=O)O)NC(=O)[C@H](Cc2c[nH]cn2)NC(=O)[C@H](Cc2c[nH]c3ccccc23)NC(=O)[C@H](C(C)C)NC1=O [SARS2L1]
IC50 [5]: 0.41 µM
IC50 [4]: > 100 µM

IILYRTYFQPFRWEF [SARS1spikeL2]
enrichment in final round (% of total sequences) [1]: 5.58%

LVFHDNVYTVTVVHV [SARS2R3L1]
enrichment in final round (% of total sequences) [1]: 0.71%
ΔTm, melting point change [3]: 1 °C

I: {CH2CO}-YRRPREQIIIGSLWVFCG[AEEA][AEEA][AEEA][AEEA]KG-NH2 / II: {CH2CO}-YRRPREQIIIGSLWVFCG[AEEA][AEEA][AEEA][AEEA] (amide I:23-II:C; thioether I:N-I:17, II:N-II:17) [Dimer 1]
IC50 [2]: 0.03 µM

CFFWYENYYTAITVT [SARS1spikeL3]
enrichment in final round (% of total sequences) [1]: 2.90%

LIWYQSYYQTEVVWF [SARS1spikeL1]
enrichment in final round (% of total sequences) [1]: 8.32%

VIWHPDRWTSVVLQI [SARS2L2]
enrichment in final round (% of total sequences) [1]: 17.02%
ΔTm, melting point change [3]: 2 °C

CC[C@H](C)[C@@H]1NC(=O)[C@H](CCC(N)=O)NC(=O)[C@H](CCC(=O)O)NC(=O)[C@H](CCCNC(=N)N)NC(=O)[C@@H]2CCCN2C(=O)[C@H](CCCNC(=N)N)NC(=O)[C@H](CCCNC(=N)N)NC(=O)[C@H](Cc2ccc(O)cc2)NC(=O)CSC[C@@H](C(=O)NCC(N)=O)NC(=O)[C@H](Cc2ccccc2)NC(=O)[C@H](C(C)C)NC(=O)[C@H](Cc2c[nH]c3ccccc23)NC(=O)[C@H](CC(C)C)NC(=O)[C@H](CO)NC(=O)CNC(=O)[C@H]([C@@H](C)CC)NC(=O)[C@H]([C@@H](C)CC)NC1=O [Compound S1b3inL1]
IC50 [5]: 0.81 µM
IC50 [4]: 5.2 µM
IC50 [6]: 1.7 µM
IC50 [7]: 2.2 µM
IC50 [8]: 7 µM
IC50 [2]: 1.5 µM

SIENYLKKLGYVLLW [SARS2D4]
enrichment in final round (% of total sequences) [1]: 5.53%
ΔTm, melting point change [3]: −0.5 °C
